Laboratory results taken from patent publication US20240228499A1, “MASP-2 INHIBITORS AND METHODS OF USE” (Omeros Corporation, priority 2022, published 2024).
Where a name gives a salt, the structure may show the parent alone.

Assays:
[1] = target: T1, MASP-2 (CCP1-CCP2-SP) (Homo sapiens, UniProt O00187); test: Enzymatic assay for MASP-2 inhibitory activity (fluorogenic substrate); type: biochemical; details: room temperature, 20 mM Hepes pH 7.4, 20 min
T1 construct: 15 μL of Enzyme MASP-2 (CCP1-CCP2-SP) in Assay Buffer
Experimental: The MASP-2 assay utilizes a fluorogenic substrate, based on the cleavage site for its natural substrate C2. The assay was run at room temperature in an assay buffer containing 20 mM HEPES, pH 7.4, 140 mM NaCl and 0.1% Tween 20. Assay parameters were adjusted such that the assay was linear with respect to time, enzyme, and substrate concentrations. Under the optimized assays conditions, IC50 values were equivalent to Ki values, except in the few cases of “tight binding” inhibitors. Cases of “tight binding” or possible “slow binding” inhibitors were handled by the methods described in Copeland R. A. (2013) Evaluation of Enzyme Inhibitors in Drug Discovery. 2nd Ed., John Wiley and Sons, Inc., Chapters 5-7.
The MASP-2 assay protocol was carried out as follows. Test compounds were serially diluted in DMSO and then 100 nL of each dilution was transferred to the assay plate(s). 10 μL of Assay Buffer was added, followed by 15 μL of Enzyme MASP-2 (CCP1-CCP2-SP) in Assay Buffer. 15 μL of Substrate in Assay Buffer was then added and the mixture was mixed to start the reaction. After 20 min at room temperature, 15 μL of a stop solution (0.1 M acetic acid) was added, the sample was mixed, and the plates were read on a SpectraMax i3× Microplate Reader with the data exported as an Excel file. Each assay plate included a “no inhibitor” (DMSO only) control, a “no enzyme” control, and a reference inhibitor control. % Activity values=100*(average test comp. fluorescence−average “no enzyme” fluorescence)/(average “DMSO only” fluorescence−average “no enzyme” fluorescence). IC50 and Ki replicate values were very reproducible, with values well within +2-fold.

[2] = target: T2, human a-thrombin (Homo sapiens, UniProt P00734); test: Enzymatic assay for thrombin (fluorogenic peptide substrate Boc-VPR-AMC); type: biochemical; details: room temperature, 20 mM Hepes pH 7.4, 20 min
T2 construct: enzyme (human a-thrombin (BioPharm® Lab.)); purchased BioPharm Lab
Experimental: The thrombin assay utilizes a fluorogenic peptide substrate (Boc-VPR-AMC (R&D Systems) and was run at room temperature in an assay buffer containing 20 mM Hepes, pH 7.4, 140 mM NaCl and 0.1% Tween 20. Assay parameters were adjusted such that the assay was linear with respect to time, enzyme, and substrate concentrations. Under these optimized assays conditions, IC50 values were equivalent to Ki values, except in a few cases of “tight binding” inhibitors. Cases of “tight binding” or possible “slow binding” inhibitors were handled by the methods described in Copeland R.A. (2013) Evaluation of Enzyme Inhibitors in Drug Discovery. 2nd Ed. John Wiley and Sons, Inc., Chapters 5-7.
The thrombin assay protocol was carried out as follows. Test compounds were serially diluted in DMSO and then 100 nL of each dilution was transferred to the assay plate(s). 10 μL of Assay Buffer was added, followed by 15 μL of enzyme (human a-thrombin (BioPharm® Lab.)) in assay buffer. 15 μL of substrate in assay buffer was then added and the sample mixed to start the reaction. After 20 min at room temperature, 15 μL of a stop solution (0.1 M acetic acid) was added, the sample was mixed, and the plates were read on a SpectraMax® i3× Microplate Reader with the data exported as Excel files. Each assay plate included a “no inhibitor” (DMSO only) control, a “no enzyme” control, and a reference inhibitor control. % Activity values=100*(ave. test comp. fluorescence−ave. “no enz” fluorescence)/(ave. “DMSO only” fluorescence−ave. “no enz” fluorescence). IC50 and Ki values were very reproducible, with values falling well within +2-fold.

T1 sequence (O00187 287-686 limits assumed): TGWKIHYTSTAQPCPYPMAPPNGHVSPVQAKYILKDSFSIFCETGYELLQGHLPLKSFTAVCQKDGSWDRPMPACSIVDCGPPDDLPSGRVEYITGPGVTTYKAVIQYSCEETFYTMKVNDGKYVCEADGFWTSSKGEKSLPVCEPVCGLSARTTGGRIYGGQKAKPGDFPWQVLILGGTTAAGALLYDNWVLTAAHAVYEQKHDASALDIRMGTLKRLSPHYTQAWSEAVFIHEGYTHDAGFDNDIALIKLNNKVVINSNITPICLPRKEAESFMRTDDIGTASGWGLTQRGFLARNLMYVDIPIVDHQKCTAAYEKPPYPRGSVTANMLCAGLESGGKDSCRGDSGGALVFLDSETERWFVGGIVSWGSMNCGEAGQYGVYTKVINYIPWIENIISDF

| Ki [1] [nM] | Ki [2] [nM] | Structure (SMILES) |
| --- | --- | --- |
| < 500 | 2500 to 10000 | Nc1ccc2c(n1)CC[C@H]2NC(=O)[C@@H]1CCc2ncc(NCc3cccc(CO)c3)c(=O)n21 [Compound 103] |
| < 500 | 2500 to 10000 | Cc1nc(N)ccc1CNC(=O)[C@@H]1CCc2ncc(NCc3ccc4c(c3)OC(F)(F)O4)c(=O)n21 [Compound 12, (S)—N-((6-amino-2-methylpyridin-3-yl)methyl)-3-(((2,2-difluorobenzo[D][1,3]dioxol-5-yl)methyl)amino)-4-oxo-4,6,7,8-tetrahydropyrrolo[1,2-a]pyrimidine-6-carboxamide, trifluoroacetate] |
| < 500 | 500 to 2500 | COc1c(F)cc(F)cc1CNc1cnc2n(c1=O)[C@H](C(=O)NCc1ccc(N)nc1C)CC2 [Compound 35, (S)-N-((6-amino-2-methylpyridin-3-yl)methyl)-3-((3,5-difluoro-2-methoxybenzyl)amino)-4-oxo-4,6,7,8-tetrahydropyrrolo[1,2-a]pyrimidine-6-carboxamide, trifluoroacetate] |
| < 500 | 2500 to 10000 | Cc1nc(N)ccc1CNC(=O)[C@@H]1CCc2ncc(NCc3cccc4c3OCCO4)c(=O)n21 [Compound 14, (S)-N-((6-amino-2-methylpyridin-3-yl)methyl)-3-(((2,3-dihydrobenzo[b][1,4]dioxin-5-yl)methyl)amino)-4-oxo-4,6,7,8-tetrahydropyrrolo[1,2-a]pyrimidine-6-carboxamide] |
| < 500 | 500 to 2500 | Cc1ccc(CNc2cnc3n(c2=O)[C@H](C(=O)N[C@@H]2CCc4nc(N)ccc42)CC3)cc1C#N [Compound 88, (S)-N-((R)-2-amino-6,7-dihydro-5H-cyclopenta[b]pyridin-5-yl)-3-((3-cyano-4-methylbenzyl)amino)-4-oxo-4,6,7,8-tetrahydro-pyrrolo[1,2-a]pyrimidine-6-carboxamide] |
| 500 to 2500 | > 25000 | Cc1cc(Cl)cc(CNc2cnc3n(c2=O)[C@H](C(=O)NCc2cccnc2)CC3)c1 [Compound 66] |
| < 500 | 500 to 2500 | Cc1ccc(F)cc1CNc1cnc2n(c1=O)[C@H](C(=O)NCc1ccc(N)nc1C)CC2 [Compound 31, (S)-N-((6-amino-2-methylpyridin-3-yl)methyl)-3-((5-fluoro-2-methylbenzyl)amino)-4-oxo-4,6,7,8-tetrahydropyrrolo[1,2-a]pyrimidine-6-carboxamide, di-trifluoroacetate] |
| < 500 | 500 to 2500 | Cc1cccc(CNc2cnc3n(c2=O)[C@H](C(=O)NCc2ccc(N)nc2C)CC3)c1F [Compound 33, (S)-N-((6-amino-2-methylpyridin-3-yl)methyl)-3-((2-fluoro-3-methylbenzyl)amino)-4-oxo-4,6,7,8-tetrahydropyrrolo[1,2-a]pyrimidine-6-carboxamide, di-trifluoroacetate] |
| < 500 | 500 to 2500 | Cc1nc(N)ccc1CNC(=O)[C@@H]1CCc2ncc(NCc3cc(F)cc(C(F)(F)F)c3)c(=O)n21 [Compound 47, (S)-N-((6-amino-2-methylpyridin-3-yl)methyl)-3-((3-fluoro-5-(trifluoromethyl)benzyl)amino)-4-oxo-4,6,7,8-tetrahydro-pyrrolo[1,2-a]pyrimidine-6-carboxamide, di-trifluoroacetate] |
| < 500 | 500 to 2500 | Cc1cc(C)cc(CNc2cnc3n(c2=O)[C@H](C(=O)NCc2ccc(N)nc2)CC3)c1 [Compound 4, (S)—N-((6-aminopyridin-3-yl)methyl)-3-((3,5-dimethylbenzyl)amino)-4-oxo-4,6,7,8-tetrahydropyrrolo[1,2-a]pyrimidine-6-carboxamide] |
| < 500 | > 25000 | Cc1cc(C)cc(CNc2cnc3n(c2=O)[C@H](C(=O)N[C@H](C)c2ccc(N)nc2)CC3)c1 [Compound 16] |
| < 500 | > 25000 | Cc1cc(CNc2cnc3n(c2=O)[C@H](C(=O)N[C@H](C)c2ccc(N)nc2)CC3)cc(C(F)(F)F)c1 [Compound 51, (S)—N—((R)-1-(6-aminopyridin-3-yl)ethyl)-3-((3-methyl-5-(trifluoromethyl)benzyl)amino)-4-oxo-4,6,7,8-tetrahydropyrrolo[1,2-a]pyrimidine-6-carboxamide. DI-trifluoroacetate] |

Further lines, the compound ahead of its results:

| Structure (SMILES) | Ki [1] [nM] | Ki [2] [nM] |
| --- | --- | --- |
| Cc1cc(C)cc(CNc2cnc3n(c2=O)[C@H](C(=O)N[C@@H](C)c2ccc(N)nc2)CC3)c1 [Compound 15, (S)—N—((S)-1-(6-aminopyridin-3-yl)ethyl)-3-((3,5-dimethylbenzyl)amino)-4-oxo-4,6,7,8-tetrahydropyrrolo[1,2-a]pyrimidine-6-carboxamide] | < 500 | > 25000 |
| Cc1cc(C)cc(CNc2cnc3n(c2=O)[C@H](C(=O)NCc2cc4cnccc4[nH]2)CC3)c1 [Compound 6, (S)—N-((1H-pyrrolo[3,2-c]pyridin-2-yl)methyl)-3-((3,5-dimethylbenzyl)amino)-4-oxo-4,6,7,8-tetrahydropyrrolo[1,2-a]pyrimidine-6-carboxamide] | < 500 | 2500 to 10000 |
| CCOc1cccc(CNc2cnc3n(c2=O)[C@H](C(=O)NCc2ccc(N)nc2C)CC3)c1 [Compound 57, (S)—N-((6-amino-2-methylpyridin-3-yl)methyl)-3-((3-ethoxybenzyl)amino)-4-oxo-4,6,7,8-tetrahydropyrrolo[1,2-a]pyrimidine-6-carboxamide] | < 500 | 500 to 2500 |
| Nc1ccc2c(n1)CC[C@H]2NC(=O)[C@@H]1CCc2ncc(NCc3cccc(F)c3)c(=O)n21 [Compound 101] | < 500 | 500 to 2500 |
| Cc1nc(N)ccc1CNC(=O)[C@@H]1CCc2ncc(NCc3cc(F)ccc3F)c(=O)n21 [Compound 28, (S)-N-((6-amino-2-methylpyridin-3-yl)methyl)-3-((2,5-difluorobenzyl)amino)-4-oxo-4,6,7,8-tetrahydropyrrolo[1,2-a]pyrimidine-6-carboxamide, di-trifluoroacetate] | < 500 | 500 to 2500 |
| CCc1cccc(CNc2cnc3n(c2=O)[C@H](C(=O)NCc2ccc(N)nc2C)CC3)c1 [Compound 26] | < 500 | 500 to 2500 |
| Cc1cc(Cl)cc(CNc2cnc3n(c2=O)[C@H](C(=O)N[C@@H]2CCc4ncccc42)CC3)c1 [Compound 85, (S)-3-((3-chloro-5-methylbenzyl)amino)-N-((R)-6,7-dihydro-5H-cyclopenta[b]pyridin-5-yl)-4-oxo-4,6,7,8-tetrahydropyrrolo[1,2-a]pyrimidine-6-carboxamide] | < 500 | > 25000 |
| N#CCc1cccc(CNc2cnc3n(c2=O)[C@H](C(=O)N[C@@H]2CCc4nc(N)ccc42)CC3)c1 [Compound 91, (S)-N-((R)-2-amino-6,7-dihydro-5H-cyclopenta[b]pyridin-5-yl)-3-((3-(cyanomethyl)benzyl)amino)-4-oxo-4,6,7,8-tetrahydro-pyrrolo[1,2-a]pyrimidine-6-carboxamide] | < 500 | 500 to 2500 |
| Cc1cc(F)cc(CNc2cnc3n(c2=O)[C@H](C(=O)NCc2ccc(N)nc2C)CC3)c1 [Compound 34, (S)-N-((6-amino-2-methylpyridin-3-yl)methyl)-3-((3-fluoro-5-methylbenzyl)amino)-4-oxo-4,6,7,8-tetrahydropyrrolo[1,2-a]pyrimidine-6-carboxamide, di-trifluoroacetate] | < 500 | < 500 |
| Cc1ccc(F)c(CNc2cnc3n(c2=O)[C@H](C(=O)NCc2ccc(N)nc2C)CC3)c1 [Compound 3, (S)—N-((6-amino-2-methylpyridin-3-yl)methyl)-3-((2-fluoro-5-methylbenzyl)amino)-4-oxo-4,6,7,8-tetrahydropyrrolo[1,2-a]pyrimidine-6-carboxamide] | < 500 | 500 to 2500 |
